Laboratory results as given in publication PMC9894184 (Proceedings of the National Academy of Sciences of the …, 2022).

Molecular target: dFASN (FASN1), recombinant full-length (Drosophila melanogaster, UniProt B7Z001)
Assay: NADPH oxidation FASN activity assay, Michaelis-Menten fit
Format: biochemical
Settings: 240 µM NADPH, 58 µM malonyl-CoA fixed

dFASN (FASN1), recombinant full-length, sequence (B7Z001 1-2540): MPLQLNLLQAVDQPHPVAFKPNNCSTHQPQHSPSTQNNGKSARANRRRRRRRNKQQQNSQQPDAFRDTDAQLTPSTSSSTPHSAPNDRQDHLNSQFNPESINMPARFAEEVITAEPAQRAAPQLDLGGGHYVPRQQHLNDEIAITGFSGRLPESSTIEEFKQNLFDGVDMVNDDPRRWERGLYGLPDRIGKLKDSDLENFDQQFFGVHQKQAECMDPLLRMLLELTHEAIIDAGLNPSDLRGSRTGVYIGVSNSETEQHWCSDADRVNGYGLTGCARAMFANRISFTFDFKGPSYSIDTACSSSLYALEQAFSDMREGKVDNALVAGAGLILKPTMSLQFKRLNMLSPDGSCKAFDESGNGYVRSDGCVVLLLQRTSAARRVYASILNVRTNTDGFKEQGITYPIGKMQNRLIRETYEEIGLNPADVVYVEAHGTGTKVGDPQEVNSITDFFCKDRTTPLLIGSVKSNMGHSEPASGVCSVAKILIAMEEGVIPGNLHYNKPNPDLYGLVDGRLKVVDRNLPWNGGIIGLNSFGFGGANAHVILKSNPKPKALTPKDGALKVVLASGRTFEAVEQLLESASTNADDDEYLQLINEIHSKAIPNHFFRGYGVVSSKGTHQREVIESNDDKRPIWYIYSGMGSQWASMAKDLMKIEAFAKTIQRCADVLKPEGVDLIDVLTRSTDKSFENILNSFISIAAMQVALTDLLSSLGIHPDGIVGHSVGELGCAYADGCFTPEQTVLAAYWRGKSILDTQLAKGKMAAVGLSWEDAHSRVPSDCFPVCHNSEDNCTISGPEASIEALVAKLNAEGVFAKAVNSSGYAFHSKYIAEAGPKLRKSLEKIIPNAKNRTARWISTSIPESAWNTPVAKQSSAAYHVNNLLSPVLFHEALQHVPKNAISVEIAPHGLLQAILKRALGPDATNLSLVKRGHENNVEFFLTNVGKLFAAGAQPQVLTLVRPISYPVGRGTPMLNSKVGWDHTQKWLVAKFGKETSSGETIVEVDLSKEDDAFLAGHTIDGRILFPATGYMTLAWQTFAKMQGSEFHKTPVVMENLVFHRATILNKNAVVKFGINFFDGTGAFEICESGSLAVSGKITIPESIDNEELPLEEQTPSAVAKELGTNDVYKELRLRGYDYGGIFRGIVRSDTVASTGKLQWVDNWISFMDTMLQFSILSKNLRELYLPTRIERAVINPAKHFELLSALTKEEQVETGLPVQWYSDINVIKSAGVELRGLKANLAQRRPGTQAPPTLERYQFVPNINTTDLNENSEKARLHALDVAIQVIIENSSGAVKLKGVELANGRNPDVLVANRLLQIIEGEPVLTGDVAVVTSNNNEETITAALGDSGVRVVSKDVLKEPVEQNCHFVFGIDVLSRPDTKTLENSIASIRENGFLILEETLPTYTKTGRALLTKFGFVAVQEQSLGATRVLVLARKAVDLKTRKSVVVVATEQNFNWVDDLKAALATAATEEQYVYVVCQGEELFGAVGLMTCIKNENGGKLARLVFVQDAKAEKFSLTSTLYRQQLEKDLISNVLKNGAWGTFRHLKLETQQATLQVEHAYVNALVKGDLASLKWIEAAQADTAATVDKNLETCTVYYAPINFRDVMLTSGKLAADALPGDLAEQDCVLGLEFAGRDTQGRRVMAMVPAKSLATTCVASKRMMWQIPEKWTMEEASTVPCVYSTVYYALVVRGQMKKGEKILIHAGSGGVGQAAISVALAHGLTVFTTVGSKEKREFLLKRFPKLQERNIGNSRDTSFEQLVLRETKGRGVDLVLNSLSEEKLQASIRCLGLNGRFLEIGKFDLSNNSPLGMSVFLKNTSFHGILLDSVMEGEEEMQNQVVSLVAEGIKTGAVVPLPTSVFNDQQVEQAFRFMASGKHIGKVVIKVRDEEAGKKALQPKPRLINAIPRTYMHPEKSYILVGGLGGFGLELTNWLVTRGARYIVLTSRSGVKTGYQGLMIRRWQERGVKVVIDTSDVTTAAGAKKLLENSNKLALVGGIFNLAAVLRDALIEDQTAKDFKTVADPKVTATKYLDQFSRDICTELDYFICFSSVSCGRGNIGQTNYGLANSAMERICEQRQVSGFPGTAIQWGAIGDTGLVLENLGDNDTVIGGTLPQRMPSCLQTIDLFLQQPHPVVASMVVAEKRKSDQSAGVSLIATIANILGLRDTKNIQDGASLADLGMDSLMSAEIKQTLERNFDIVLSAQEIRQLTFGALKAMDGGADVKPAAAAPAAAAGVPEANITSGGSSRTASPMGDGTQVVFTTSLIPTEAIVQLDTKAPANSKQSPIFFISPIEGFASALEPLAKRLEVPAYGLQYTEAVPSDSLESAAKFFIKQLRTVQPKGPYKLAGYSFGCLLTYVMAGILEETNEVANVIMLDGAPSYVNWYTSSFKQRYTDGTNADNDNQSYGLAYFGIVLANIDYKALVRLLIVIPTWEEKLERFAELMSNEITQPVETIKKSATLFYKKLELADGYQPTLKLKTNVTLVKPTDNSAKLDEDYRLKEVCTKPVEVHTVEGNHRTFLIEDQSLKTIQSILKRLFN

CC(=O)SCCNC(=O)CCNC(=O)[C@H](O)C(C)(C)COP(=O)(O)OP(=O)(O)OC[C@H]1O[C@@H](n2cnc3c(N)ncnc32)[C@H](O)[C@@H]1OP(=O)(O)O [acetyl-CoA]
Km: Steady-state kinetics over AcCoA was also evaluated
